# Test results published in patent US20050203065A1, “Method of treating ischemia reperfusion injury using adenosine receptor antagonists” (priority 2002, published 2005).
# How the values were obtained:
# [1] = target: T1, human A2B adenosine receptors (Homo sapiens, UniProt P29275); test: Radioligand competitive binding, human A2b receptor; design: expressed in transfected cells; host or cells: HEK-293; conditions: HEK 293 membranes
# T1 sequence (P29275 1-332): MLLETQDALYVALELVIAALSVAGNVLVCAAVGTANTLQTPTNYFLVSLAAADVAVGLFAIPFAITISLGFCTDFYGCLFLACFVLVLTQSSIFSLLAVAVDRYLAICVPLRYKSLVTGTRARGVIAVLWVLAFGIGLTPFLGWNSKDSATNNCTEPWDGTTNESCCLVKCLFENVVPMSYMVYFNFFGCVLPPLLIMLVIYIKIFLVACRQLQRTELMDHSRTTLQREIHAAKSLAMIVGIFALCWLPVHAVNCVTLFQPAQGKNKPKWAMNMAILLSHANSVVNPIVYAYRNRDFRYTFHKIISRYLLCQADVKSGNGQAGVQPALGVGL
# Protocol: (§1) Binding assays were terminated by filtration.
# (§2) Membranes (40-70 μg membrane protein), radioligands, and varying concentrations of competing ligands were incubated in triplicate in 0.1 ml buffer HE plus 2 units/mL adenosine deaminase for 2.5 hours at 21° C. The radioligands used for competitive binding assays were: [^3H]-8-cyclopentyl-1,3-dipropyxanthine ([^3H]-DPCPX) (NEN, Boston, Mass.) for A1 and A2b adenosine receptors, [^3H]-4-(2-[7-amino-2-(furyl)(1,2,4)triazole(2,3-a)(1,3,5)triazin-5-ylaminoethyly)phenol ([^3H] ZM241385) for A2a adenosine receptors (Tocris, Bristol, UK), and [^125Iodine]-labeled N6-(4-aminobenzyl)-9-(5-(methylcarbonyl)-β-D-ribofuranosyl) adenine ([^125I]-AB-MECA) or [^3H]-R-N^6-phenylisopropyladenosine (H^3R]-R-PIA) for A3 adenosine receptors (both from NEN, Boston, Mass.). Nonspecific binding was measured in the presence of 10 μM 5′N ethylcarboxamidoadenosine (NECA, from RBI-Sigma, Natick, Mass.) for A1 and A2b receptors, or 10 μM xanthine amino congener (XAC, from RBI-Sigma, Natick, Mass.) for A2a receptors. Binding assays were terminated by filtration over Whatman GF/C glass fiber filters using a BRANDEL cell harvester (Gaithersburg, Md.).
# [2] = target: T2, recombinant human A2a adenosine receptors (Homo sapiens, UniProt P29274); test: Radioligand competitive binding, human A2a receptor ([3H]-ZM241385)
# T2 construct: purchased PerkinElmer (Boston, Mass.); host or cells: HEK 293
# Protocol: as §1, §2
# [3] = target: T1, human A2B adenosine receptors; test: FLIPR calcium functional assay, human A2b receptor in HEK-293 cells (5 μM NECA); assay type: cell-based; design: expressed in transfected cells; host or cells: HEK-293; conditions: HEK293 cells, null method
# Protocol: Cells were seeded into 96-well tissue culture plates with black walls and clear bottoms, and cultured to an 80-0.90% confluent monolayer. Without removing the media, an equal volume of dye (from calcium assay kit purchased from Molecular Devices) was added. Cell plates were incubated for 1 hour at 37° C. and were then transferred to the-FLIPR unit (Molecular Devices).
# For assay of recombinant human and rat A2b adenosine receptors, HEK-293 cells were incubated with increasing doses of agonist (5′N-ethylcarboxamidoadenosine, NECA) to determine the concentration of agonst that produced 50% of a maximum response.
# The FLIPR integrates an argon laser excitation source, a 96-well pipettor, and a detection system utilizing a CCD (Charged Coupled Device) imaging camera. […] Fluorescence data were collected at 0.1-sec intervals before and after simultaneous rapid addition of compounds to the 96-well plate. Results were read as relative fluorescence units (RFU).
# In FLIPR functional assays, agonist concentration-response curves were fitted to a logistic equation by use of the nonlinear regression program in Prizm GraphPad. […] A Schild analysis was performed to estimate the potency of the compounds as antagonists (pA2). […]
# [4] = test system: open-chest, barbital-anesthetized dogs; test: Protocol III (reperfusion): 60 minutes occlusion and 3 hours reperfusion, drug from 10 minutes before release of occlusion, dogs; assay type: in vivo, dog
# Protocol: The studies were performed in open-chest, barbital-anesthetized dogs instrumented to measure heart rate, blood pressure, left ventricular pressure, and regional myocardial blood flow (radioactive microspheres). A mechanical occluder was placed around a proximal portion of the left anterior descending coronary artery to produce ischemia and reperfusion. At the end of the experiments, infarct size was determined-by histochemical staining (patent blue dye and triphenyltetrazolium) and expressed as a percentage of the region at risk or as a percentage of the entire left ventricle.
# In the reperfusion protocol (see FIG. 3, protocol III), the dogs were subjected to 60 minutes of coronary artery occlusion followed by three hours of reperfusion. […] The antagonists were administered at a dose of 1 mg/kg i.v. bolus followed by an infusion of 10 μg/kg/min for one hour.
# [5] = target: T3, recombinant human A3 adenosine receptors (Homo sapiens, UniProt P0DMS8); test: Radioligand binding, human A3 receptor ([125I]-AB-MECA), incl. one-point binding at 10 μM; conditions: read-out: Percent (%) Inhibition at 10 μM Antagonist, A3
# T3 construct: expressed in transfected cells; host or cells: HEK 293
# T3 sequence (P0DMS8 1-318): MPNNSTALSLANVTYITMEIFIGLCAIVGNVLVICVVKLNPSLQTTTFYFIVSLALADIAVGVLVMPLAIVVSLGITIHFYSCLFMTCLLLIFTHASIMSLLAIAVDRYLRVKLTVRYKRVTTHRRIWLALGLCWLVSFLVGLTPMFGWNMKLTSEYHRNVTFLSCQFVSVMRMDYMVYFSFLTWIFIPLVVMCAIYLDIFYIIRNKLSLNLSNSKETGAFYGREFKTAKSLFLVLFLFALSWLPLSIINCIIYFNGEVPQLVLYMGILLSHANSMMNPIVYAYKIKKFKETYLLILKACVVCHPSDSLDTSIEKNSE
# [6] = target: T4, recombinant canine A2a adenosine receptors (Canis lupus familiaris, UniProt P11617); test: Radioligand competition binding, canine A2a receptor (3H-ZM 241385), transfected HEK 293 membranes; conditions: canine; mean ± SEM, n = 3; 3H-ZM 241385; read-out: Ki, A2a
# T4 construct: expressed in transfected cells
# Protocol: Membranes (40-70 μg membrane protein), radioligands, and varying concentrations of competing ligands were incubated in triplicate in 0.1 ml buffer HE plus 2 units/mL adenosine deaminase for 2.5 hours at 21° C. […] Nonspecific binding was measured in the presence of 10 μM 5′N ethylcarboxamidoadenosine (NECA, from RBI-Sigma, Natick, Mass.) for A1 and A2b receptors, or 10 μM xanthine amino congener (XAC, from RBI-Sigma, Natick, Mass.) for A2a receptors. Binding assays were terminated by filtration over Whatman GF/C glass fiber filters using a BRANDEL cell harvester (Gaithersburg, Md.).
# [7] = target: T5, recombinant canine A1 adenosine receptors (Canis lupus familiaris, UniProt P11616); test: Radioligand competition binding, canine A1 receptor (3H-CPX), transfected HEK 293 membranes
# T5 construct: expressed in transfected cells
# T5 sequence (P11616 1-326): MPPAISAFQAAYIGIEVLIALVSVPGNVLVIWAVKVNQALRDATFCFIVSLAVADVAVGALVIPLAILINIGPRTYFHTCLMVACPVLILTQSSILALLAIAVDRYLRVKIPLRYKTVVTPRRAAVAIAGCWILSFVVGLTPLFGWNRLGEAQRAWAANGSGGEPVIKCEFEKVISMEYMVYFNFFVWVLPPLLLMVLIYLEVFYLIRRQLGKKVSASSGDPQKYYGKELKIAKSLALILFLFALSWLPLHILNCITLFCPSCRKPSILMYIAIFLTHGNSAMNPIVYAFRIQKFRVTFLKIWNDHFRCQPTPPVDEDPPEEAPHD
# Protocol: as §2
# T4 sequence (P11617 whole entry): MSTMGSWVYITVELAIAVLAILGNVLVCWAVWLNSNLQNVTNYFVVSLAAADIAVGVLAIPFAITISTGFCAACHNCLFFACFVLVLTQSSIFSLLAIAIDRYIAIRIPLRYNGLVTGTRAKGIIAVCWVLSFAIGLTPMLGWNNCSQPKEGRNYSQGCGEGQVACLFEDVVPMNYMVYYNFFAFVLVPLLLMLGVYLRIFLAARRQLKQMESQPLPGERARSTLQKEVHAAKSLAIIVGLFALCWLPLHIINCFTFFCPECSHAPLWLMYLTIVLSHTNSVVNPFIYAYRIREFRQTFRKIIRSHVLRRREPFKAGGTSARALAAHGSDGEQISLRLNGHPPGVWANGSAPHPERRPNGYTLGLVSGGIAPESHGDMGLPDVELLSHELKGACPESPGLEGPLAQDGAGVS
# T2 sequence (P29274 whole entry): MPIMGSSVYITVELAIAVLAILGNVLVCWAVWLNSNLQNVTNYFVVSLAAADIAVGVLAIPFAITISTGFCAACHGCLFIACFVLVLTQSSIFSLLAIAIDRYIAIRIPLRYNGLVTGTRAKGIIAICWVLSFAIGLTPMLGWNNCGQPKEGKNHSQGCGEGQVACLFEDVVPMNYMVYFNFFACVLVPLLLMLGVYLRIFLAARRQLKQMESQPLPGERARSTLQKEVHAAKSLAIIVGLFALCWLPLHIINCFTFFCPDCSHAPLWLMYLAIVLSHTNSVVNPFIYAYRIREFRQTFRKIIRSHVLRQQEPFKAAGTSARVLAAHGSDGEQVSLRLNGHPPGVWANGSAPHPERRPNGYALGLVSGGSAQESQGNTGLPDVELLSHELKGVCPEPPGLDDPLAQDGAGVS
smiles,measurement,setting,value
"CCCn1c(=O)c2[nH]c(C34CCC(CCC(=O)O)(CC3)CC4)nc2n(CCC)c1=O [BG 9928, 3-[4-(2,6-dioxo-1,3-dipropyl-2,3,6,7-tetrahydro-1H-purin-8-yl)-bicyclo[2.2.2]oct-1-yl]-propionic acid]",Ki,[1],0.0885 ± 0.021 µM
same,Ki,[2],4.06 µM
same,Kb,[3],0.00336 µM
same,"Infarct size expressed as a percentage of the entire left ventricle, in words",[4],a significant reduction in infarct size was not observed
same,Relationship between infarct size and collateral blood flow compared to control group,[4],shifted downward
same,Reduction in infarct size (percentage of the risk region),[4]; 1 mg/kg i.v. bolus + 10 μg/kg/min for one hour from 10 minutes before release of occlusion,44%
same,"Infarct size expressed as a percentage of the risk region, in words",[4]; administration during the early phase of reperfusion,reduced significantly
same,inhibition at 10 µM,[5],30%
same,Ki,[6],4.31 µM
same,Ki,[7],0.0289 ± 0.0041 µM
